Broadly, the inhibition is the percentage by which the read-out fell short of the control.

Each structure is given as a SMILES string.

For one assay, the target named is T1, RUVBL2 (Homo sapiens, UniProt Q9Y230).
T1 construct: recombinant from E. coli BL21(DE3) pRIL
In words: ATP/NADH coupled ATPase assay. Type of assay: biochemical.

The target of the next assay is T2, ScRvb2 (Saccharomyces cerevisiae, UniProt Q12464).
T2 construct: gene RVB2
In words: ATP/NADH coupled ATPase assay. The following applies: 10 µM protomer, pH 7.5, 37 °C.

T1 sequence (Q9Y230 whole entry): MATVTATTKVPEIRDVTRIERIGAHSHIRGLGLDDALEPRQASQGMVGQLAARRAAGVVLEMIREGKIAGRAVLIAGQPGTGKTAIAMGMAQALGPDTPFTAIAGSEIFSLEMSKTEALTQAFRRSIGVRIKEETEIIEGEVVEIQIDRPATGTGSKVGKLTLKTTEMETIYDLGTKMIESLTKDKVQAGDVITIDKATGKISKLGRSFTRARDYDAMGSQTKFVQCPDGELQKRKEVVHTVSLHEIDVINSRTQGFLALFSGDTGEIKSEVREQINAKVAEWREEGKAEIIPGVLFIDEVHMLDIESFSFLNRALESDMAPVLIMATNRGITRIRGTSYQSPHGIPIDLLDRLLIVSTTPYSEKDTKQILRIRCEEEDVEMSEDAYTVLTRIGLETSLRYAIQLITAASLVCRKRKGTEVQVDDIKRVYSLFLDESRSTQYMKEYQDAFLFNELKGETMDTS
T2 sequence (Q12464 whole entry): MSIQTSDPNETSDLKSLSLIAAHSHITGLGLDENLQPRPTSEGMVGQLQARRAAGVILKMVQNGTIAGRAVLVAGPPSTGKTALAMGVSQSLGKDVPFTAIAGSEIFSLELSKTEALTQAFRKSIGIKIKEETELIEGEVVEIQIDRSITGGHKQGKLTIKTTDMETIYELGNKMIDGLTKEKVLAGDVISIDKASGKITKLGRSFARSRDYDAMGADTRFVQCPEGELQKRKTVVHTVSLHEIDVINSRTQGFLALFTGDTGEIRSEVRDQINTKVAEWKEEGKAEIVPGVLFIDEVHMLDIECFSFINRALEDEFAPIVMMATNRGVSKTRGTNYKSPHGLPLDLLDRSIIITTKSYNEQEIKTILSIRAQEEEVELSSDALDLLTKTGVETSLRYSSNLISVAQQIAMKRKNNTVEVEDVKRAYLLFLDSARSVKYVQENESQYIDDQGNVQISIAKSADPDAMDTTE

In the case of `CNC(=O)c1cc(Oc2ccc(NC(=O)Nc3ccc(Cl)c(C(F)(F)F)c3)c(F)c2)ccn1` [regorafenib], the inhibition at 15 µM against RUVBL2 was approximately 40%.
Consider `CNC(=O)c1cc(Oc2ccc(NC(=O)Nc3ccc(Cl)c(C(F)(F)F)c3)cc2)ccn1` [sorafenib], for which the “% inhibition at 30 μM” value on ScRvb2 is “sorafenib can inhibit RUVBL2 from Saccharomyces cerevisiae (named ScRvb2) although less efficiently”.

(Values after publication PMC7226205 (Biomolecules, 2020).)
